Source: patent US4382922A, “Peptides affecting gonadal function” (The Salk Institute for Biological Studies, priority 1982, dated 1983)
“And” between values parts separate entries of the source, which are not always exact repeats. Equal entries are not always repeated.

These compounds were tested on dispersed rat pituitary cells. Conditions: not given.
Assay type: cell-based
Description: The peptides prepared in the foregoing Example I are assayed in vitro using a four-day-old primary culture of dispersed rat pituitary cells and compared with LRF. The levels of LH secreted over a 4-hour period in response to the application of peptides are assayed by specific radioimmunoassay for rat LH. The results of testing are expressed in the tables herebelow: […]

| Structure (SMILES) | NANOGRAMS OF LH SECRETED/ml. 4 hr. |
| --- | --- |
| CC(C)C[C@H](NC(=O)CNC(=O)[C@H](Cc1ccc(O)cc1)NC(=O)[C@H](CO)NC(=O)[C@H](Cc1c[nH]c2ccccc12)NC(=O)[C@H](Cc1c[nH]cn1)NC(=O)[C@@H]1CCC(=O)N1)C(=O)N[C@@H](CCCNC(=N)N)C(=O)N1CCC[C@H]1C(=O)NCC(N)=O [LRF, p-Glu-His-Trp-Ser-Tyr-Gly-Leu-Arg-Pro-Gly-NH2, reference compound] | 898 and 1240 and 1702 |

Same assay, conditions: in vitro LH release, LRF = 1; confidence limits in parentheses

| Structure (SMILES) | Potency (relative to LRF) |
| --- | --- |
| CCNC(=O)[C@@H]1CCCN1C(=O)[C@H](CCCNC(=N)N)NC(=O)[C@H](CC(C)C)NC(=O)[C@@H](Cc1ccccc1)NC(=O)[C@H](Cc1ccc(O)cc1)NC(=O)[C@H](CO)NC(=O)[C@H](Cc1c[nH]c2ccccc12)NC(=O)[C@H](Cc1c[nH]cn1)NC(=O)[C@@H]1CCC(=O)N1 [compound 8] | 78 (46-132) |
| CCNC(=O)[C@@H]1CCCN1C(=O)[C@H](CCCNC(=N)N)NC(=O)[C@H](CC(C)C)NC(=O)[C@@H](Cc1c(C)c(C)c(C)c(C)c1C)NC(=O)[C@H](Cc1ccc(O)cc1)NC(=O)[C@H](CO)NC(=O)[C@H](Cc1c[nH]c2ccccc12)NC(=O)[C@H](Cc1c[nH]cn1)NC(=O)[C@@H]1CCC(=O)N1 [[pentamethyl-D-Phe^6, Pro^9 -NEt]-LRF] | about 86 |
| CCNC(=O)[C@@H]1CCCN1C(=O)[C@H](CCCNC(=N)N)NC(=O)[C@H](CC(C)C)NC(=O)[C@@H](Cc1ccc(Cl)c(Cl)c1)NC(=O)[C@H](Cc1ccc(O)cc1)NC(=O)[C@H](CO)NC(=O)[C@H](Cc1c[nH]c2ccccc12)NC(=O)[C@H](Cc1c[nH]cn1)NC(=O)[C@@H]1CCC(=O)N1 [compound 5] | 38 (16-82) |
| CCNC(=O)[C@@H]1CCCN1C(=O)[C@H](CCCNC(=N)N)NC(=O)[C@H](CC(C)C)NC(=O)[C@@H](Cc1ccc(OC)cc1)NC(=O)[C@H](Cc1ccc(O)cc1)NC(=O)[C@H](CO)NC(=O)[C@H](Cc1c[nH]c2ccccc12)NC(=O)[C@H](Cc1c[nH]cn1)NC(=O)[C@@H]1CCC(=O)N1 [Peptide No. 2, [OCH3 -D-Phe^6, Pro^9 -NEt]-LRF] | 130(72-242) |
| CCNC(=O)[C@@H]1CCCN1C(=O)[C@H](CCCNC(=N)N)NC(=O)[C@H](CC(C)C)NC(=O)[C@@H](Cc1c(C)c(C)c(C)c(C)c1C)NC(=O)[C@H](Cc1ccc(O)cc1)NC(=O)[C@H](CO)NC(=O)[C@H](Cc1c[nH]c2ccccc12)NC(=O)[C@H](Cc1c[nH]cn1)NC(=O)[C@@H]1CCC(=O)N1 [Peptide No. 7, [pentamethyl-D-Phe^6, Pro^9 -NEt]-LRF] | 86(50-145) |
| CCNC(=O)[C@@H]1CCCN1C(=O)[C@H](CCCNC(=N)N)NC(=O)[C@H](CC(C)C)NC(=O)[C@@H](Cc1ccc(NC(C)=O)cc1)NC(=O)[C@H](Cc1ccc(O)cc1)NC(=O)[C@H](CO)NC(=O)[C@H](Cc1c[nH]c2ccccc12)NC(=O)[C@H](Cc1c[nH]cn1)NC(=O)[C@@H]1CCC(=O)N1 [compound 6] | 36 (21-69) |
| CCNC(=O)[C@@H]1CCCN1C(=O)[C@H](CCCNC(=N)N)NC(=O)[C@H](CC(C)C)NC(=O)[C@@H](Cc1ccc(OC)cc1)NC(=O)[C@H](Cc1ccc(O)cc1)NC(=O)[C@H](CO)NC(=O)[C@H](Cc1c[nH]c2ccccc12)NC(=O)[C@H](Cc1c[nH]cn1)NC(=O)[C@@H]1CCC(=O)N1 [[OCH3 -D-Phe^6, Pro^9 -NEt]-LRF] | about 130 |
| CCNC(=O)[C@@H]1CCCN1C(=O)[C@H](CCCNC(=N)N)NC(=O)[C@H](CC(C)C)NC(=O)[C@@H](Cc1ccc(C)cc1)NC(=O)[C@H](Cc1ccc(O)cc1)NC(=O)[C@H](CO)NC(=O)[C@H](Cc1c[nH]c2ccccc12)NC(=O)[C@H](Cc1c[nH]cn1)NC(=O)[C@@H]1CCC(=O)N1 [compound 3] | 143 (79-268) |
| CCNC(=O)[C@@H]1CCCN1C(=O)[C@H](CCCNC(=N)N)NC(=O)[C@H](CC(C)C)NC(=O)[C@@H](Cc1ccc(Cl)cc1)NC(=O)[C@H](Cc1ccc(O)cc1)NC(=O)[C@H](CO)NC(=O)[C@H](Cc1c[nH]c2ccccc12)NC(=O)[C@H](Cc1c[nH]cn1)NC(=O)[C@@H]1CCC(=O)N1 [compound 4] | 59 (29-120) |
| CCNC(=O)[C@@H]1CCCN1C(=O)[C@H](CCCNC(=N)N)NC(=O)[C@H](CC(C)C)NC(=O)[C@@H](Cc1ccc([N+](=O)[O-])cc1)NC(=O)[C@H](Cc1ccc(O)cc1)NC(=O)[C@H](CO)NC(=O)[C@H](Cc1c[nH]c2ccccc12)NC(=O)[C@H](Cc1c[nH]cn1)NC(=O)[C@@H]1CCC(=O)N1 [compound 1, [pNO2 -D-Phe^6, Pro^9 -NEt]-LRF] | 141 (83-297) |
